Results published in patent US4434788A, “Enhancer of anti-tumor effect” (Yamasa Shoyu Kabushiki Kaisha, priority 1980, dated 1984).
Where two headings read alike, the source gives them in different places.

Key:
[1] = tested on: EMT-6 tumors; assay: Enhancement of the effect of anti-tumor agents on EMT-6 tumor in mouse; type: in vivo, BALB/c-strain mice; details: for Mean tumor diameter 7 days after commencement of treatment: control 7.38; for Mean tumor diameter 14 days after commencement of treatment: control 9.20; for Mean tumor diameter ratio 7 days after commencement of treatment: control 1.27; for Mean tumor diameter ratio 14 days after commencement of treatment: control 1.57
Experimental: (1) EMT-6 tumor cells (1×10^6) were inoculated intradermally into the right thighs of BALB/c-strain mice (7 weeks old). On the 10th day after inoculation of the tumor cells and thereafter, various enhancer chemicals in physiological saline solutions were administered intrapenitoneally to the mouse every other day in the indicated doses for respective agents. The pharmaceutical agents of the present invention were administered 30 minutes after administration of the anti-tumor agents. After commencement of the treatment with pharmaceutical agents, the tumor sizes were measured every other day and compared with the control group.

[2] = tested on: EMT-6 tumors; assay: Radiosensitizing effect on EMT-6 tumor in mouse, 1500 rad, tumor size and cure; type: in vivo, BALB/c-strain female mice
[3] = tested on: Chinese hamster-HA-1 cells; assay: Plating efficiency of stationary-phase HA-1 cells given enhancer immediately after 1,000 R X-ray (inhibition of PLDR); type: cell-based; details: for Plating efficiency after 3 hours: control 1.8; for Plating efficiency after 6 hours: control 2.4; for Plating efficiency after 9 hours: control 3.8
Experimental: (§2) (1) Cells under stationary phase, prepared by planting 2×10^5 cells/well of Chinese hamster-HA-1 cells in a multiwell dish and exchanging cultural medium every day starting on the third day and thereafter were irradiated with 1,000 R of X-rays. Immediately after radiation, 3'-dUrd, and 3'-dGuo in HANKs' balanced salt solution were administered. Then, after elapse of various times, the cells were taken off with trypsin, and a suitable number of cells were transferred into petri dishes for testing colony forming ability and plating efficiencies. The percentages of survival were calculated with corrections by the plating efficiencies with the pharmaceutical agents alone.

[4] = as above; type: cell-based, Chinese hamster; details: chinese hamster, ha-1 cells, no irradiation, control 66, read-out: Plating efficiency, treated only with enhancer (after 9 hours)
Experimental: as §2

[5] = tested on: HA-1 cells; assay: Survival percent of stationary-phase HA-1 cells treated with enhancer 30 minutes before X-ray irradiation; type: cell-based, Chinese hamster
Experimental: (§1) (2) HA-1 cells under stationary phase prepared similarly as in (1), were irradiated with various doses (200 to 800 R) of X-rays for examination of effects of the enhancer on plating efficiencies of the cells. The treatment with the enhancer was conducted 30 minutes before irradiation. Measurement of plating efficiencies was carried out for the cells immediately after irradiation with X-rays.

[6] = as above; type: cell-based, Chinese hamster; details: ha-1 cells, no irradiation, control 90, read-out: Plating efficiency of the group not irradiated with X-Rays
Experimental: as §1

[7] = tested on: potentially lethal damage repair; assay: PLDR-inhibiting / radiosensitizing activity (general statements)
[8] = tested on: adenosinedeaminase; details: cited from earlier work
[9] = ADM alone 2 mg/kg × 8, n = 10, before treatment 6.72 ± 1.00
[10] = 3'-dUrd 0.8 mg/mouse + irradiation 1500 rad, irradiation alone 0%
[11] = 3'-dUrd 0.8 mg/mouse + irradiation 1500 rad, irradiation alone 0/10
[12] = 3'-dUrd 150 μg/ml after 1,000 R
[13] = 3'-dUrd 300 μg/ml after 1,000 R
[14] = 3'-dUrd 600 μg/ml after 1,000 R
[15] = araC alone 50 mg/kg × 8, n = 7, before treatment 6.11 ± 0.78
[16] = ACNU alone 25 mg/kg × 5, n = 7, before treatment 6.23 ± 0.76

COc1cccc2c1C(=O)c1c(O)c3c(c(O)c1C2=O)C[C@@](O)(C(=O)CO)C[C@@H]3O[C@H]1C[C@H](N)[C@H](O)[C@H](C)O1 [ADM, Adriamycin, reference compound]
Mean tumor diameter 7 days after commencement of treatment [1, 9]: 7.67 ± 1.30 mm
Mean tumor diameter 14 days after commencement of treatment [1, 9]: 9.04 ± 1.77 mm
Mean tumor diameter ratio 7 days after commencement of treatment ([1]; ADM alone 2 mg/kg × 8, n = 10): 1.17 ± 0.29
Mean tumor diameter ratio 14 days after commencement of treatment ([1]; ADM alone 2 mg/kg × 8, n = 10): 1.38 ± 0.36

O=c1ccn([C@@H]2O[C@H](CO)C[C@H]2O)c(=O)[nH]1 [3'-dUrd, 3'-deoxyuridine]
Cure (number of mice) ([2]; 3'-dUrd 0.8 mg/mouse + irradiation 1500 rad, 28 days, irradiation alone 1/10): 3/7
Cure (percent) ([2]; 3'-dUrd 0.8 mg/mouse + irradiation 1500 rad, 28 days, irradiation alone 10%): 43%
0.5 to less than 1 of volume ratio excluding cure; Tumor regression rate: slow (percent) [2, 10]: 0%
Less than 0.5 of volume ratio excluding cure; Tumor regression rate: rapid (percent) [2, 10]: 14%
0.5 to less than 1 of volume ratio excluding cure; Tumor regression rate: slow (number) [2, 11]: 0/7
Less than 0.5 of volume ratio excluding cure; Tumor regression rate: rapid (number) [2, 11]: 1/7
1.0 to less than 2.0 of volume ratio excluding cure; regrowth: slow (number) ([2]; 3'-dUrd 0.8 mg/mouse + irradiation 1500 rad, irradiation alone 3/10): 2/7
2.0 or more of volume ratio excluding cure; regrowth: rapid (number) ([2]; 3'-dUrd 0.8 mg/mouse + irradiation 1500 rad, irradiation alone 6/10): 1/7
1.0 to less than 2.0 of volume ratio excluding cure; regrowth: slow (percent) ([2]; 3'-dUrd 0.8 mg/mouse + irradiation 1500 rad, irradiation alone 30%): 29%
2.0 or more of volume ratio excluding cure; regrowth: rapid (percent) ([2]; 3'-dUrd 0.8 mg/mouse + irradiation 1500 rad, irradiation alone 60%): 14%
Mean tumor diameter 2 weeks after treatment ([2]; 3'-dUrd 40 mg/kg i.p. 30 min before 1500 rad, n = 7, baseline 6.00 ± 0.41 mm, irradiation alone 7.41): 6.31 ± 0.97 mm
Mean tumor diameter 3 weeks after treatment ([2]; 3'-dUrd 40 mg/kg i.p. 30 min before 1500 rad, n = 7, baseline 6.00 ± 0.41 mm, irradiation alone 8.29): 4.29 ± 1.73 mm
Diameter ratio 2 weeks after treatment ([2]; 3'-dUrd 40 mg/kg i.p. 30 min before 1500 rad, n = 7, irradiation alone 1.09): 1.06 ± 0.15
Diameter ratio 3 weeks after treatment ([2]; 3'-dUrd 40 mg/kg i.p. 30 min before 1500 rad, n = 7, irradiation alone 1.17): 0.66 ± 0.25
Volume ratio 2 weeks after treatment ([2]; 3'-dUrd 40 mg/kg i.p. 30 min before 1500 rad, n = 7, irradiation alone 1.44): 1.63 ± 0.44
Volume ratio 3 weeks after treatment ([2]; 3'-dUrd 40 mg/kg i.p. 30 min before 1500 rad, n = 7, irradiation alone 2.06): 1.21 ± 0.60
Plating efficiency after 3 hours [3, 12]: 1.6%
Plating efficiency after 6 hours [3, 12]: 2.2%
Plating efficiency after 9 hours [3, 12]: 3.5%
Plating efficiency after 3 hours [3, 13]: 1.2%
Plating efficiency after 6 hours [3, 13]: 1.9%
Plating efficiency after 9 hours [3, 13]: 3.1%
Plating efficiency after 3 hours [3, 14]: 0.9%
Plating efficiency after 6 hours [3, 14]: 1.6%
Plating efficiency after 9 hours [3, 14]: 2.6%
Inhibition of repair (PLDR) after irradiation with X-rays ([3]; HA-1 cells, Table 1): found to inhibit repair (PLDR) after irradiation with X-rays
Toxicity as examined by plating efficiencies ([3]; HA-1 cells, Table 1): Substantially no toxicity was observed
viability at 9 h ([4]; 3'-dUrd 150 μg/ml): 65%
viability at 9 h ([4]; 3'-dUrd 300 μg/ml): 60%
viability at 9 h ([4]; 3'-dUrd 600 μg/ml): 58%
Survival percent of the group irradiated with X-Rays ([5]; 100 μg/ml, 200R, control 88): 45%
Survival percent of the group irradiated with X-Rays ([5]; 100 μg/ml, 400R, control 27): 19%
Survival percent of the group irradiated with X-Rays ([5]; 100 μg/ml, 600R, control 5.9): 5.2%
Survival percent of the group irradiated with X-Rays ([5]; 100 μg/ml, 800R, control 1.9): 1.8%
Survival percent of the group irradiated with X-Rays ([5]; 200 μg/ml, 200R, control 88): 39%
Survival percent of the group irradiated with X-Rays ([5]; 200 μg/ml, 400R, control 27): 15%
Survival percent of the group irradiated with X-Rays ([5]; 200 μg/ml, 600R, control 5.9): 4.9%
Survival percent of the group irradiated with X-Rays ([5]; 200 μg/ml, 800R, control 1.9): 1.8%
Survival percent of the group irradiated with X-Rays ([5]; 400 μg/ml, 200R, control 88): 30%
Survival percent of the group irradiated with X-Rays ([5]; 400 μg/ml, 400R, control 27): 13%
Survival percent of the group irradiated with X-Rays ([5]; 400 μg/ml, 600R, control 5.9): 3.8%
Survival percent of the group irradiated with X-Rays ([5]; 400 μg/ml, 800R, control 1.9): 1.2%
Survival percent of the group irradiated with X-Rays ([5]; 800 μg/ml, 200R, control 88): 29%
Survival percent of the group irradiated with X-Rays ([5]; 800 μg/ml, 400R, control 27): 13%
Survival percent of the group irradiated with X-Rays ([5]; 800 μg/ml, 600R, control 5.9): 3.8%
Survival percent of the group irradiated with X-Rays ([5]; 800 μg/ml, 800R, control 1.9): 1.0%
Sensitizing effect under X-ray irradiation ([5]; HA-1 cells, Table 2): found to exhibit sensitizing effect especially with low dosage of irradiation with X-rays
viability ([6]; 100 μg/ml): 85%
viability ([6]; 200 μg/ml): 87%
viability ([6]; 400 μg/ml): 85%
viability ([6]; 800 μg/ml): 80%
Radiosensitizing activity [7]: excellent radiosensitizing activities

Bleomycin [BLM, reference compound]
Mean tumor diameter 18 days after commencement of treatment ([1]; BLM alone 25 mg/kg × 4, n = 10, before treatment 6.12 ± 1.17, control 11.43 ± 2.30): 9.77 ± 2.50 mm
Mean tumor diameter ratio 18 days after commencement of treatment ([1]; BLM alone 25 mg/kg × 4, n = 10, control 1.97 ± 0.40): 1.60 ± 0.41

Nc1ccn([C@@H]2O[C@H](CO)[C@@H](O)[C@@H]2O)c(=O)n1 [araC, 1-β-D-arabinofuranosylcytosine, reference compound]
Mean tumor diameter 7 days after commencement of treatment [1, 15]: 7.11 ± 1.48 mm
Mean tumor diameter 14 days after commencement of treatment [1, 15]: 8.07 ± 2.62 mm
Mean tumor diameter ratio 7 days after commencement of treatment ([1]; araC alone 50 mg/kg × 8, n = 7): 1.16 ± 0.18
Mean tumor diameter ratio 14 days after commencement of treatment ([1]; araC alone 50 mg/kg × 8, n = 7): 1.38 ± 0.46

OC[C@H]1O[C@@H](n2cnc3c2N=CNC[C@H]3O)C[C@@H]1O [2'-deoxycoformycin]
Inhibition of adenosinedeaminase [8]: inhibitor against adenosinedeaminase

Cc1ncc(CNC(=O)N(CCCl)N=O)c(N)n1 [ACNU, reference compound]
Mean tumor diameter 7 days after commencement of treatment [1, 16]: 5.51 ± 1.91 mm
Mean tumor diameter 14 days after commencement of treatment [1, 16]: 6.54 ± 1.82 mm
Mean tumor diameter ratio 7 days after commencement of treatment ([1]; ACNU alone 25 mg/kg × 5, n = 7): 0.87 ± 0.21
Mean tumor diameter ratio 14 days after commencement of treatment ([1]; ACNU alone 25 mg/kg × 5, n = 7): 1.06 ± 0.29

O=c1[nH]c(=O)n(C2CCCO2)cc1F (stereo not drawn) [FT-207, 1-(2-tetrahydrofuryl)-5-fluorouracil, reference compound]
Mean tumor diameter 18 days after commencement of treatment ([1]; FT-207 alone 100 mg/kg × 6, n = 9, before treatment 6.96 ± 1.43, control 11.43): 8.37 ± 2.12 mm
Mean tumor diameter ratio 18 days after commencement of treatment ([1]; FT-207 alone 100 mg/kg × 6, n = 9, control 1.97): 1.20 ± 0.31
